Source: patent publication US10730860B2, “Diaminopyrimidine benzenesulfone derivatives and uses thereof” (Dana-Farber Cancer Institute, Inc., priority 2014, dated 2020)

Legend:
BRD4.1 [1] = molecular target: T1, BRD4.1 (Homo sapiens (Human), UniProt O60885); experiment: Acetyl-Histone Binding Assay (AlphaScreen); conditions: in vitro percent inhibition of BRD4.1 at 2.5 μM compound concentration; read-out: % INHIB (at 2.5 uM)
Procedure: Assays were performed with minor modifications from the manufacturer's protocol (PerkinElmer, USA). All reagents were diluted in 50 mM HEPES, 150 mM NaCl, 0.1% w/v BSA, and 0.01% w/v Tween^□ 20 at pH 7.5 and allowed to equilibrate to room temperature prior to addition to plates. After addition of Alpha beads to master solutions, all subsequent steps were performed in low light conditions. […] Addition to wells was performed with either a multichannel pipet (for optimization experiments) or a Biotek EL406 liquid handler. After a 1000-rpm spin-down for 1 minute, 100 nL of the solutions of the compounds of the invention from stock plates were added by pin transfer using a Janus Workstation (PerkinElmer, USA). The streptavidin-coated donor beads (25 μg/ml final) were added as with previous solution in a 2×, 10 μL volume. Following this addition, the plates were sealed with foil to block light exposure and to prevent evaporation. The plates were spun down again at 1000 rpm for 1 minute. Next, the plates were incubated in the room with the plate reader (for temperature equilibration) for 1.5 hour prior to reading the assay.

797 cells = experiment: Cellular assay, cell viability (ATPlite), BRD4 dependent cell line 797; format: cell-based; conditions: 72 h; BRD4 dependent cell line 797, three days incubation
Procedure: (§1) The compounds of the invention are also evaluated in the BRD4 dependant cell line for the cellular activity to generate cellular IC50 values.
(§2) Cells (e.g., BRD4 dependant cells) were counted and adjusted to 60,000 cells/mL. Using a Biotek EL406, 50 μL of the cells in media were distributed into 384 well white plates from Thermo. Immediately after plating, compounds of the invention in DMSO were distributed to plates. For large plate sets, cells were returned to a 37° C. incubator while not in use. The compounds were added to plates using a 100 nL 384 well pin transfer manifold on a Janus workstation. Stocks were arrayed in 10 point quadruplicate dose response in DMSO stock in 384-well Greiner compound plates. After addition of the compounds, plates were incubated for three days in a 37° C. incubator. Cell viability was read out using ATPlite from Perkin Elmer. Plates were removed from the incubator and brought to room temperature prior to use. Lyophilized powder was resuspended in lysis buffer and diluted 1:2 with DI water. 25 μL of this solution was added to each well using the Biotek liquid handler. Plates were sealed with adherent aluminum seals prior to vortexing and spinning down at 1000 g for 1 minute. Plates were incubated for 15 minutes at room temperature before signal was read on an Envision Plate Reader.

HL60 cells = experiment: Cellular assay, cell viability (ATPlite), BRD4 dependent cell line HL60; format: cell-based; conditions: Homo sapiens, HL-60, 72 h; BRD4 dependent cell line HL60, three days incubation
Procedure: as §1, §2

BRD4.1 [2] = molecular target: T1, BRD4.1; experiment: Isothermal Titration Calorimetery (ITC); format: binding; conditions: BRD4.1, 25° C.
Procedure: Isothermal Titration Calorimetery
ITC was performed using a ITC200 microcalorimeter from GE™ (Northampton, Mass.). All experiments were carried out at 25° C. while stirring at 1000 rpm, in ITC buffer (50 mM HEPES pH 7.4 at 25° C., 150 mM NaCl). The microsyringe was loaded with a solution of the protein sample (225 μM, in ITC buffer). […] All titrations were conducted using an initial injection of 0.2 μl, followed by 19 identical injections of 2 μl with a duration of 5 sec (per injection) and a spacing of 90 sec between injections. The heat of dilution was determined by independent titrations (protein into buffer) and was subtracted from the experimental data. […] The collected data were implicated in the MicroCal™ Origin software supplied with the instrument to yield enthalpies of binding (ΔH) and binding constants (KB) as previously described by Wiseman and coworkers. Thermodynamic parameters were calculated (ΔG=ΔH−TΔS=−RT ln KB, where ΔG, ΔH and ΔS are the changes in free energy, enthalpy and entropy of binding respectively). A single binding site model was employed.

| EC50 (HL60 cells) | Kd (BRD4.1 [2]) | Structure (SMILES) | inhibition at 2.5 µM (BRD4.1 [1]) | EC50 (797 cells) |
| --- | --- | --- | --- | --- |
| – | – | CCN1CCN(C(=O)Cc2ccc(Nc3ncc(F)c(Nc4ccc(C(=O)Nc5ccccc5Cl)cc4)n3)cc2)CC1 | 56.1% | – |
| – | – | Cc1cnc(Nc2ccc(OCCN3CCCC3)cc2)nc1Nc1cccc(S(=O)(=O)NC(C)(C)C)c1 | 36% | – |
| 2070 nM | 483 nM | CC(C)(C)NS(=O)(=O)c1cccc(Nc2nc(Nc3ccc(OCCN4CCCC4)cc3)ncc2N)c1 | – | 2400 nM |
